US9073873B2, “2-heterocyclylaminoalkyl-(p-quinone) derivatives for treatment of oxidative stress diseases” (Edison Pharmaceuticals, Inc., priority 2008, dated 2015)

What was measured:
Assay type in all cases: cell-based
[1] = tested on: human dermal fibroblasts from Huntington's patients; assay: Rescue of fibroblasts from Huntington's patients from oxidative stress; conditions: Fibroblast, Huntington's cells GM 04281, read-out: protection against Huntington's, EC50
Procedure: (§1) An initial screen was performed to identify compounds effective for the amelioration of redox disorders. Test samples, 4 reference compounds (idebenone, decylubiquinone, Trolox and α-tocopherol acetate), and solvent controls were tested for their ability to rescue FRDA fibroblasts stressed by addition of L-buthionine-(S,R)-sulfoximine (BSO), as described in Jauslin et al., Hum. Mol. Genet. 11(24):3055 (2002), Jauslin et al., FASEB J. 17:1972-4 (2003), and International Patent Application WO 2004/003565. […] This specific BSO-mediated cell death can be prevented by administration of antioxidants or molecules involved in the antioxidant pathway, such as α-tocopherol, selenium, or small molecule glutathione peroxidase mimetics. However, antioxidants differ in their potency, i.e. the concentration at which they are able to rescue BSO-stressed FRDA fibroblasts.
(§2) Test samples were screened according to the following protocol: A culture with FRDA fibroblasts was started from a 1 ml vial with approximately 500,000 cells stored in liquid nitrogen. Cells were propagated in 10 cm cell culture dishes by splitting every third day in a ratio of 1:3 until nine plates were available. Once confluent, fibroblasts were harvested. For 54 micro titer plates (96 well-MTP) a total of 14.3 million cells (passage eight) were re-suspended in 480 ml medium, corresponding to 100 μl medium with 3,000 cells/well. The remaining cells were distributed in 10 cm cell culture plates (500,000 cells/plate) for propagation. The plates were incubated overnight at 37° C. in a atmosphere with 95% humidity and 5% CO2 to allow attachment of the cells to the culture plate.
(§3) MTP medium (243 μl) was added to a well of the microtiter plate. The test compounds were unfrozen, and 7.5 μl of a 5 mM stock solution was dissolved in the well containing 243 μl medium, resulting in a 150 μM master solution. Serial dilutions from the master solution were made. The period between the single dilution steps was kept as short as possible (generally less than 1 second).
(§4) Plates were kept overnight in the cell culture incubator. The next day, 10 μl of a 10 mM BSO solution were added to the wells, resulting in a 1 mM final BSO concentration. Forty-eight hours later, three plates were examined under a phase-contrast microscope to verify that the cells in the 0% control (wells E1-H1) were clearly dead. The medium from all plates was discarded, and the remaining liquid was removed by gently tapping the plate inversed onto a paper towel.
(§5) 100 μl of PBS containing 1.2 μM Calcein AM were then added to each well. The plates were incubated for 50-70 minutes at room temperature. After that time the PBS was discarded, the plate gently tapped on a paper towel and fluorescence (excitation/emission wavelengths of 485 nm and 525 nm, respectively) was read on a Gemini fluorescence reader. Data was imported into Microsoft Excel (EXCEL is a registered trademark of Microsoft Corporation for a spreadsheet program) and used to calculate the EC50 concentration for each compound.
(§6) Compounds of the invention were tested using a screen similar to the one described in Example A, but substituting FRDA cells with Huntington's cells obtained from the Coriell Cell Repositories (Camden, N.J.; repository number GM 04281). The compounds were tested for their ability to rescue human dermal fibroblasts from Huntington's patients from oxidative stress.

[2] = tested on: human dermal fibroblasts from Parkinson's Disease patients; assay: Rescue of fibroblasts from Parkinson's Disease patients from oxidative stress; conditions: Fibroblast, PD cells AG20439, read-out: protection against PD, EC50
Procedure: as §1, §2, §3, §4, §5
as §6, with “Example A […]” for “Example”, “with Parkinson's Disease (PD)” for “with Huntington's”, “number AG20439).” for “number GM 04281).”, “from Parkinson's Disease” for “from Huntington's”

[3] = tested on: human dermal fibroblasts from CoQ10 deficient patients; assay: Rescue of fibroblasts from CoQ10 deficient patients from oxidative stress; conditions: Fibroblast, cells from CoQ10 deficient patients harboring a CoQ2 mutation, read-out: protection against CoQ10 deficiency, EC50
Procedure: as §1, §2, §3, §4, §5
Compounds of the invention were tested using a screen similar to the one described in Example A, but substituting FRDA cells with cells obtained from CoQ10 deficient patients harboring a CoQ2 mutation. The compounds were tested for their ability to rescue human dermal fibroblasts from CoQ10 deficient patients from oxidative stress.

[4] = tested on: human dermal fibroblasts from LHON patients; assay: Rescue of fibroblasts from LHON patients from oxidative stress; conditions: Fibroblast, LHON cells GM03858, read-out: protection against LHON, EC50
Procedure: as §1, §2, §3, §4, §5
as §6, with “with Leber's Hereditary Optic Neuropathy (LHON)” for “with Huntington's”, “number GM03858).” for “number GM 04281).”, “from LHON” for “from Huntington's”

[5] = tested on: Human dermal fibroblasts from Friedreich's Ataxia patients; assay: Rescue of BSO-stressed FRDA fibroblasts (Calcein AM viability); conditions: FRDA fibroblasts GM04078, BSO-stressed, read-out: protection against FRDA, EC50
Procedure: as §1
MEM (a medium enriched in amino acids and vitamins, catalog no. 1-31F24-I) and Medium 199 (M199, catalog no. 1-21F22-I) with Earle's Balanced Salts, without phenol red, were purchased from Bioconcept. Fetal Calf Serum was obtained from PAA Laboratories. Basic fibroblast growth factor and epidermal growth factor were purchased from PeproTech. Penicillin-streptomycin-glutamine mix, L-buthionine (S,R)-sulfoximine, (+)-α-tocopherol acetate, decylubiquinone, and insulin from bovine pancreas were purchased from Sigma. Trolox (6-Hydroxy-2,5,7,8-tetramethylchromane-2-carboxylic acid) was obtained from Fluka. Idebenone was obtained from Chemo Iberica. Calcein AM was purchased from Molecular Probes. Cell culture medium was made by combining 125 ml M199 EBS, 50 ml Fetal Calf Serum, 100 U/ml penicillin, 100 μg/ml streptomycin, 2 mM glutamine, 10 μg/ml insulin, 10 ng/ml EGF, and 10 ng/ml bFGF; MEM EBS was added to make the volume up to 500 ml. A 10 mM BSO solution was prepared by dissolving 444 mg BSO in 200 ml of medium (Invitrogen, Carlsbad, Ca.) with subsequent filter-sterilization. During the course of the experiments, this solution was stored at +4° C. The cells were obtained from the Coriell Cell Repositories (Camden, N.J.; repository number GM04078) and grown in 10 cm tissue culture plates. Every third day, they were split at a 1:3 ratio.
The test samples were supplied in 1.5 ml glass vials. The compounds were diluted with DMSO, ethanol or PBS to result in a 5 mM stock solution. Once dissolved, they were stored at −20° C. Reference antioxidants (idebenone, decylubiquinone, α-tocopherol acetate and Trolox) were dissolved in DMSO.
as §2, §3
Plates were kept overnight in the cell culture incubator. The next day, 10 μl of a 10 mM BSO solution were added to the wells, resulting in a 1 mM final BSO concentration. […]

Measured: EC50

CC1=C(C)C(=O)C(CCNc2cc(C(F)(F)F)ccn2)=C(C)C1=O [2,3,5-Trimethyl-6-(2-(4-(trifluoromethyl)pyridin-2-ylamino)ethyl)cyclohexa-2,5-diene-1,4-dione]
< 100 nM: all assays above

CC1=C(C)C(=O)C(CCNc2nccc(C(F)(F)F)n2)=C(C)C1=O [2,3,5-Trimethyl-6-(2-(4-(trifluoromethyl)pyrimidin-2-ylamino)ethyl)cyclohexa-2,5-diene-1,4-dione]
< 100 nM: all assays above

CC1=C(C)C(=O)C(CCNc2ncccc2C(F)(F)F)=C(C)C1=O [2,3,5-Trimethyl-6-(2-(3-(trifluoromethyl)pyridin-2-ylamino)ethyl)cyclohexa-2,5-diene-1,4-dione]
< 100 nM: all assays above

CC1=C(C)C(=O)C(CCNc2ncc(F)cn2)=C(C)C1=O [2-(2-(5-Fluoropyrimidin-2-ylamino)ethyl)-3,5,6-trimethylcyclohexa-2,5-diene-1,4-dione]
< 100 nM: all assays above

CC1=C(C)C(=O)C(CCNc2ccccn2)=C(C)C1=O [2,3,5-Trimethyl-6-(2-(pyridin-2-ylamino)ethyl)cyclohexa-2,5-diene-1,4-dione]
< 100 nM: all assays above

CC1=C(C)C(=O)C(CCNc2ccc(C(F)(F)F)cn2)=C(C)C1=O [2,3,5-Trimethyl-6-(2-(5-(trifluoromethyl)pyridin-2-ylamino)ethyl)cyclohexa-2,5-diene-1,4-dione]
< 100 nM: all assays above

CC1=C(C)C(=O)C(CCNc2nccc(F)n2)=C(C)C1=O [2-(2-(4-Fluoropyrimidin-2-ylamino)ethyl)-3,5,6-trimethylcyclohexa-2,5-diene-1,4-dione]
< 100 nM: all assays above

CC1=C(C)C(=O)C(CCNc2cccc(C(F)(F)F)n2)=C(C)C1=O [2,3,5-Trimethyl-6-(2-(6-(trifluoromethyl)pyridin-2-ylamino)ethyl)cyclohexa-2,5-diene-1,4-dione]
< 100 nM: all assays above

CC1=C(C)C(=O)C(CCNc2ncccn2)=C(C)C1=O [2,3,5-Trimethyl-6-(2-(pyrimidin-2-ylamino)ethyl)cyclohexa-2,5-diene-1,4-dione]
< 100 nM: all assays above
